We go through 19 compounds from patent US7879881B2, “Piperidinyl compounds that selectively bind integrins” (Janssen Pharmaceutica NV, priority 2002, dated 2011).

One test addresses GP IIb/IIIa (Homo sapiens, UniProt P05106+P08514). The test is described as follows: In Vitro Solid Phase Purified GP IIb/IIIa Binding Assay (biotinylated fibrinogen). The settings on record: biotinylated fibrinogen binding to immobilized purified GP IIb/IIIa, mean ± spread. The procedure: In Vitro Solid Phase Purified GP IIb/IIIa Binding Assay
The plate was covered and incubated overnight at 4° C. The GP IIb/IIIa solution was discarded and 150 μL of 5% BSA was added and incubated at RT for 1-3 h. The plate was washed extensively with modified Tyrodes buffer. Biotinylated fibrinogen (25 μL/well) at 2× final concentration was added to the wells that contain the test compounds (25 μL/well). The plate was covered and incubated at RT for 2-4 h. Twenty minutes prior to incubation completion, one drop of Reagent A (VectaStain ABC Horseradish Peroxidase kit, Vector Laboratories, Inc.) and one drop Reagent B were added with mixing to 5 mL modified Tyrodes buffer mix and let stand. The ligand solution was discarded and the plate washed (5×200 μL/well) with modified Tyrodes buffer. […] The Vecta Stain solution was discarded and the wells washed (5×200 μL/well) with modified Tyrodes buffer. Developing buffer (10 mL of 50 mM citrate/phosphate buffer @ pH 5.3, 6 mg o-phenylenediamine, 6 μL 30% H2O2; 50 μL/well) was added and incubated at RT for 3-5 min and then 2 N H2SO4 (50 μL/well) was added.

The target in another test is T1, Human αvβ3 (Homo sapiens, UniProt P05106+P06756).
T1 construct: purchased Chemicon International Inc., Temecula, Calif
T1 sequence (P06756 31-889 limits assumed): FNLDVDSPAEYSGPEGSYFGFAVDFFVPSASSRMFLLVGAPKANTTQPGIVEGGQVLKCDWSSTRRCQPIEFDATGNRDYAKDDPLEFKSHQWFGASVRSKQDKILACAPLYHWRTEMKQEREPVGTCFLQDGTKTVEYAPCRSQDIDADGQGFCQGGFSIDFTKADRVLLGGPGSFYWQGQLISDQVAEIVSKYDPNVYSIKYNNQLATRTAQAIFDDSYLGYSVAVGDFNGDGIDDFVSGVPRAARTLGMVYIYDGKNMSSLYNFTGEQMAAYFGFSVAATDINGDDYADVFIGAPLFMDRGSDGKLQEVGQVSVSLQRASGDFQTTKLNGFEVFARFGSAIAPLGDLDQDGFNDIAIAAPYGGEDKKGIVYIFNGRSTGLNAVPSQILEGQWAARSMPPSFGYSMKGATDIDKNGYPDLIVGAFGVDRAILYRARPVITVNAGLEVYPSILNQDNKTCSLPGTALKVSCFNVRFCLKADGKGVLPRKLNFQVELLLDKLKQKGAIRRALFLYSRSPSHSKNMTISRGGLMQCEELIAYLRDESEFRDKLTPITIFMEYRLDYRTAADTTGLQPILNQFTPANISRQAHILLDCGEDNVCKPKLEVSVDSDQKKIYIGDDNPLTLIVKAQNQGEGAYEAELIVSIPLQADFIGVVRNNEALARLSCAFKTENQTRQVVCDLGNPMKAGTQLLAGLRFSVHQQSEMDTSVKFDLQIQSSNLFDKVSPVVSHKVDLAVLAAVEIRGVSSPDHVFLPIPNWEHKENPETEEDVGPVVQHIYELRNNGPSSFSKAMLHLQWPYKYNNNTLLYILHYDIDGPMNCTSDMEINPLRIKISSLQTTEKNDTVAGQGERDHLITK
T1 sequence (P06756 891-1048 partner limits assumed): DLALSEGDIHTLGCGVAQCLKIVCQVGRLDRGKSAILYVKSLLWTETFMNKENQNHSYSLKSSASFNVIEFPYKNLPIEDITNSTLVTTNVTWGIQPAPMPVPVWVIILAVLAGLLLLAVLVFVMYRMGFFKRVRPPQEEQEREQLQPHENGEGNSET
T1 sequence (P05106 27-788): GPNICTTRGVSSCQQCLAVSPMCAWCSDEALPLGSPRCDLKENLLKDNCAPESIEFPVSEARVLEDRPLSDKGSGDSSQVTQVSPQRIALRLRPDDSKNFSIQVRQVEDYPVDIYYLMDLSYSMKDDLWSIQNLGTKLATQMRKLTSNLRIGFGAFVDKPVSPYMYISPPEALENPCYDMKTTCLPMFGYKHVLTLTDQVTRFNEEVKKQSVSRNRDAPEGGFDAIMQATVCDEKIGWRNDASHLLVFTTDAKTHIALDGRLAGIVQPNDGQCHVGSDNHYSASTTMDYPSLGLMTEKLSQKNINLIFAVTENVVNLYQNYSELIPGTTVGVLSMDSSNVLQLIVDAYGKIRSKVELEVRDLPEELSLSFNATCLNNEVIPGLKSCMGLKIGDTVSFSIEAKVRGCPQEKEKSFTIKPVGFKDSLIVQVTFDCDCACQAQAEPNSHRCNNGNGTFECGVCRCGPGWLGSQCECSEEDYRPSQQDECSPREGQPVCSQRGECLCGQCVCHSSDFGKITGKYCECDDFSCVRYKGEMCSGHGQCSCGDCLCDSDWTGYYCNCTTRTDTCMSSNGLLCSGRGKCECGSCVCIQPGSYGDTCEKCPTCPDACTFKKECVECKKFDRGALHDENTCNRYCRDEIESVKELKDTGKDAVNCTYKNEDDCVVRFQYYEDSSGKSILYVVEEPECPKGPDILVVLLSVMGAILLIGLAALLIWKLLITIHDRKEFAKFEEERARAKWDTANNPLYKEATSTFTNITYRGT
Kind of test: In Vitro Solid Phase Purified αvβ3 Binding Assay (vitronectin/αvβ3). The settings on record: vitronectin binding to immobilized purified human αvβ3; mean ± spread; read-out: αvβ3IC50. The procedure:
In Vitro Solid Phase Purified αvβ3 Binding Assay
(§1) Human αvβ3 (Chemicon International Inc., Temecula, Calif.), at a concentration of 1 μg/ml dissolved in Tris buffer (20 mM Tris, 1 mM CaCl2, 1 mM MgCl2, 10 μM MnCl2, 150 mM NaCl), was immobilized on Immulon 96 well plates (Dynex Technologies, Chantilly, Va.) overnight at 4° C. Plates were washed and treated with blocking buffer (3% BSA in Tris buffer) for 2 h at 37° C. Plates were then rinsed 2 times with assay buffer comprised of Tris buffer. Synthesized compounds were added to wells in duplicate immediately prior to the addition of 2 nM vitronectin (Sigma, St. Louis, Mo.). Following a 3 hour incubation at 37° C., plates were washed 5 times in assay buffer. An anti-human vitronectin IgG rabbit polyclonal antibody (Calbiochem, San Diego, Calif.) was added (1:2000) and plates were incubated for 1 hour at room temperature. VectaStain ABC peroxidase kit reagents (Vector Laboratories, Burlingame, Calif.) employing a biotin labeled anti-rabbit IgG, were utilized for detection of bound antibody. Plates were read at 490 nm on a Molecular Devices (Sunnyvale, Calif.) microplate reader.

In a further test the target is T2, human purified αVβ5 (Homo sapiens, UniProt P06756+P18084).
T2 construct: purchased Chemicon International, Inc
T2 sequence (P06756 31-889 limits assumed): as the sequence (P06756 31-889 limits assumed) above
T2 sequence (P06756 891-1048 partner limits assumed): as the sequence (P06756 891-1048 partner limits assumed) above
T2 sequence (P18084 24-799): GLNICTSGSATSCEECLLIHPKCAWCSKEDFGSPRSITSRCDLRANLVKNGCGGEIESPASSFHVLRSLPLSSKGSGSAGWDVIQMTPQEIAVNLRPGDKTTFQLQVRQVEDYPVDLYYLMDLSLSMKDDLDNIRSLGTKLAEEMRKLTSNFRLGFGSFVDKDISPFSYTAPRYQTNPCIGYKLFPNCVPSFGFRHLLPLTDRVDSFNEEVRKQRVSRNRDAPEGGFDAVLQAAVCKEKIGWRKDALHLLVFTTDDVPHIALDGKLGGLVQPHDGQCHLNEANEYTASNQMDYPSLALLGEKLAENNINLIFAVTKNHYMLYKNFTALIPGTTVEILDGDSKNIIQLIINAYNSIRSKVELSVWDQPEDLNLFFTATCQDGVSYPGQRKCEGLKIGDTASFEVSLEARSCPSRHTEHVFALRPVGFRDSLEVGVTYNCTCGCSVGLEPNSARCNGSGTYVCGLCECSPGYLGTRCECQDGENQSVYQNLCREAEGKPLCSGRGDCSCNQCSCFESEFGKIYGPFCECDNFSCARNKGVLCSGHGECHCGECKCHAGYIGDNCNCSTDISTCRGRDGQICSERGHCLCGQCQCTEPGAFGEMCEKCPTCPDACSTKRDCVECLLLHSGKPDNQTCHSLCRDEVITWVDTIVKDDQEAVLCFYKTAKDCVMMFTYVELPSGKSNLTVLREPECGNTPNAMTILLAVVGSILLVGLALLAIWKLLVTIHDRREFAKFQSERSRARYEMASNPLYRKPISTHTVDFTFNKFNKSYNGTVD
The test is described as follows: In Vitro Solid Phase Purified αcβ5 Binding Assay (vitronectin/αVβ5). As to conditions: vitronectin binding to immobilized purified human αVβ5; mean ± spread; read-out: αvβ5 IC50. Here is the method: as §1
In Vitro Solid Phase Purified αcβ5 Binding Assay
All other aspects of the assay including buffers, reagents and incubation times remain unchanged.

Structures are written as SMILES. Read-outs that look alike come from different tables or passages of the source.

GP IIb/IIIa, sequence (P08514 32-887 limits assumed): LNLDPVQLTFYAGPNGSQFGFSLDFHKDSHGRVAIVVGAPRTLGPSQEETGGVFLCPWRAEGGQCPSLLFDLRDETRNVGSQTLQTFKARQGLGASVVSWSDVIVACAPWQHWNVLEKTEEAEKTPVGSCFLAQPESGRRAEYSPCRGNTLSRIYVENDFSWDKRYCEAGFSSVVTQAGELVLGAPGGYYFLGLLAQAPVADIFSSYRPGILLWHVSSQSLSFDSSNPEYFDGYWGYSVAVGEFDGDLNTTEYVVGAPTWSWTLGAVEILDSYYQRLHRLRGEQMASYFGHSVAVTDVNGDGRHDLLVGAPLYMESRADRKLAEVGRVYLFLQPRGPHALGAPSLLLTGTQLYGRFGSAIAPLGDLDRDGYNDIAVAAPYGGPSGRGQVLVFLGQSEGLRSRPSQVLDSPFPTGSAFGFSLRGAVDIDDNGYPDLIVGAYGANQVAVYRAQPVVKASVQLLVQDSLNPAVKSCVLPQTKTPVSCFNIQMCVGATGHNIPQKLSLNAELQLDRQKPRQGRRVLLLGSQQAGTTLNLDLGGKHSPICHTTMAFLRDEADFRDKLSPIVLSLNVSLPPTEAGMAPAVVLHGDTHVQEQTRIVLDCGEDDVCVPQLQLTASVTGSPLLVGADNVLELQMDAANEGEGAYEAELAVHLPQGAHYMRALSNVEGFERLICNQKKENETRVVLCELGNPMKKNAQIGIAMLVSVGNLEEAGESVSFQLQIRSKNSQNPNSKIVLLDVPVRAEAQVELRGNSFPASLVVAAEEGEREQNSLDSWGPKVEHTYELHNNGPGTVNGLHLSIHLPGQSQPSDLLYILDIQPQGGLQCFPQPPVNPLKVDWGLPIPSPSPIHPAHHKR
GP IIb/IIIa, sequence (P08514 891-1039 partner limits assumed): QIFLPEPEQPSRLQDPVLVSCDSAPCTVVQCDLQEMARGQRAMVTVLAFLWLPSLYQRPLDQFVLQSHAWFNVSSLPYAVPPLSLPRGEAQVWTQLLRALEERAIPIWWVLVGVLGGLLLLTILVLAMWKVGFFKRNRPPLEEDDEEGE
GP IIb/IIIa, sequence (P05106 27-788): as the sequence (P05106 27-788) above

Take `O=C(O)CC(CCC1CCN(C(=O)c2cccc(NC3=NCC(O)CN3)c2)CC1)c1ccc2c(c1)OCO2` (stereo not drawn) [Cpd 54, β-(1,3-benzodioxol-5-yl)-1-[3-[(1,4,5,6-tetrahydro-5-hydroxy-2-pyrimidinyl)amino]benzoyl]-4-piperidinepentanoic acid]: the IC50 at GP IIb/IIIa (read-out: αIIbβ3 IC50) was 0.24 µM; at Human αvβ3, 1.7 ± 0.5 nM; at human purified αVβ5, 34.7 ± 11.7 nM.

Consider `CSc1cccc(C(CC(=O)O)CC2CCN(C(=O)CCc3ccc4c(n3)NCCC4)CC2)c1` (racemic) [Cpd 66], for which the values for the IC50 on GP IIb/IIIa (read-out: αIIbβ3 IC50), at Human αvβ3 and on human purified αVβ5 were 28.3 µM, 1.2 ± 0.1 nM and 10.3 ± 1.4 nM, respectively.

On to `O=C(O)CC(CCC1CCN(C(=O)c2cccc(NC3=NCCCN3)c2)CC1)c1cnc2ccccc2c1` (stereo not drawn) [Cpd 12, β-[2-[1-[3-[(1,4,5,6-Tetrahydro-2-pyrimidinyl)amino]benzoyl]-4-piperidinyl]ethyl]-3-quinolinepropanoic acid], for which the figures for the IC50 on GP IIb/IIIa (read-out: αIIbβ3 IC50), at Human αvβ3 and at human purified αVβ5 were 0.136 ± 0.003 µM, 4.2 ± 1.4 nM and 78 ± 17 nM, respectively.

As for `O=C(O)CC(CCC1CCN(C(=O)Cc2ccc3c(n2)NCCC3)CC1)c1ccc2c(c1)OCO2` (stereo not drawn) [Cpd 55, β-(1,3-benzodioxol-5-yl)-1-[(5,6,7,8-tetrahydro-1,8-naphthyridin-2-yl)acetyl]-4-piperidinepentanoic acid], the IC50 at GP IIb/IIIa (read-out: αIIbβ3 IC50) was found to be 15.6 µM; at Human αvβ3, 95 nM; at human purified αVβ5, 737 nM.

For the compound `COc1ncc(C(CC(=O)O)CC2CCN(C(=O)CCc3ccc4c(n3)NCCC4)CC2)c(OC)n1` (stereo not drawn) [Cpd 47, 2,4-dimethoxy-β-[[1-[1-oxo-3-(5,6,7,8-tetrahydro-1,8-naphthyridin-2-yl)propyl]-4-piperidinyl]methyl]-5-pyrimidinepropanoic acid], the IC50 on GP IIb/IIIa (read-out: αIIbβ3 IC50) worked out at 1.47 ± 0.37 µM; on Human αvβ3, 1.4 ± 0.7 nM; at human purified αVβ5, 4.6 ± 1.7 nM.

In the case of `O=C(O)CC(CC1CCN(C(=O)CCc2ccc3c(n2)NCCC3)CC1)c1ccccc1` (stereo not drawn) [Cpd 13, 1-[1-oxo-3-(5,6,7,8-tetrahydro-1,8-naphthyridin-2-yl)propyl]-β-phenyl-4-piperidinebutanoic acid], the figures for the IC50 on GP IIb/IIIa (read-out: αIIbβ3 IC50), on Human αvβ3 and on human purified αVβ5 were 11.1 ± 3.4 µM, 3.2 ± 0.6 nM and 36 ± 13.3 nM, respectively.

`O=C(O)CC(CC1CCN(C(=O)CCc2ccc3c(n2)NCCC3)CC1)c1ccc(-c2ccccc2)c(F)c1` (stereo not drawn) [Cpd 41, β-(2-fluoro[1,1′-biphenyl]-4-yl)-1-[1-oxo-3-(5,6,7,8-tetrahydro-1,8-naphthyridin-2-yl)propyl]-4-piperidinebutanoic acid]: the IC50 at GP IIb/IIIa (read-out: αIIbβ3 IC50) was found to be 19.3 ± 2.6 µM; at Human αvβ3 it was 1.8 ± 1 nM; at human purified αVβ5, 873 ± 158 nM.

In the case of `O=C(O)CC(CC1CCN(C(=O)CCCc2ccc3c(n2)NCCC3)CC1)c1cnc2ccccc2c1` (stereo not drawn) [Cpd 29, β-[[1-[1-oxo-4-(5,6,7,8-tetrahydro-1,8-naphthyridin-2-yl)butyl]-4-piperidinyl]methyl]-3-quinolinepropanoic acid], the IC50 on GP IIb/IIIa (read-out: αIIbβ3 IC50) was 1.74 ± 0.89 µM; on Human αvβ3, 2.2 ± 0.8 nM; on human purified αVβ5 it was 119 ± 15 nM.

On to `O=C(O)CC(CCC1CCN(C(=O)c2cccc(NC3=NCCCC3)c2)CC1)c1ccc2c(c1)OCO2` (stereo not drawn) [Cpd 53, β-(1,3-benzodioxol-5-yl)-1-[3-[(3,4,5,6-tetrahydro-2-pyridinyl)amino]benzoyl]-4-piperidinepentanoic acid], for which the IC50 stood at 0.94 ± 0.05 µM on GP IIb/IIIa (read-out: αIIbβ3 IC50), 29.8 ± 13.7 nM on Human αvβ3 and 138 ± 41.5 nM at human purified αVβ5.

With `O=C(O)CC(c1cnc2ccccc2c1)C1CCN(C(=O)Cc2cccc(NC3=NCC(O)CN3)c2)CC1` (stereo not drawn) [Cpd 3, β-[1-[[3-[(1,4,5,6-Tetrahydro-5-hydroxy-2-pyrimidinyl)amino]phenyl]acetyl]-4-piperidinyl]-3-quinolinepropanoic acid], the IC50 at GP IIb/IIIa (read-out: αIIbβ3 IC50) came to 0.21 µM; on Human αvβ3 it was 3.6 ± 0.4 nM; on human purified αVβ5, 2500 nM.

With `O=C(O)CC(CC1CCN(C(=O)CCc2ccc3c(n2)NCCC3)CC1)c1cncc2ccccc12` (stereo not drawn) [Cpd 44, β-[[1-[1-oxo-3-(5,6,7,8-tetrahydro-1,8-naphthyridin-2-yl)propyl]-4-piperidinyl]methyl]-4-isoquinolinepropanoic acid], the IC50 at GP IIb/IIIa (read-out: αIIbβ3 IC50) was 5.44 ± 1.1 µM; at Human αvβ3 it was 2.2 ± 0.9 nM; on human purified αVβ5 it was 2 ± 0.6 nM.

Regarding `O=C(O)CC(CCC1CCN(C(=O)CCc2ccc3c(n2)NCCC3)CC1)c1ccc2c(c1)OCO2` (stereo not drawn) [Cpd 20, β-(1,3-benzodioxol-5-yl)-1-[1-oxo-3-(5,6,7,8-tetrahydro-1,8-naphthyridin-2-yl)propyl]-4-piperidinepentanoic acid], the IC50 at GP IIb/IIIa (read-out: αIIbβ3 IC50) worked out at 1.8 µM; at Human αvβ3, 142 ± 27 nM; at human purified αVβ5, 995 nM.

Turning to `O=C(O)CC(CC1CCN(C(=O)CCCc2ccc3c(n2)NCCC3)CC1)c1ccc(F)cc1` (stereo not drawn) [Cpd 34, β-(4-fluorophenyl)-1-[1-oxo-4-(5,6,7,8-tetrahydro-1,8-naphthyridin-2-yl)butyl]-4-piperidinebutanoic acid], the figures for the IC50 at GP IIb/IIIa (read-out: αIIbβ3 IC50), on Human αvβ3 and at human purified αVβ5 were greater than 50 µM, 148 ± 100 nM and 1040 ± 109 nM, respectively.

As for `O=C(O)CC(CC1CCN(C(=O)CCc2ccc3c(n2)NCCC3)CC1)c1cccc(C(F)(F)F)c1` (stereo not drawn) [Cpd 39, 1-[1-oxo-3-(5,6,7,8-tetrahydro-1,8-naphthyridin-2-yl)propyl]-β-[3-(trifluoromethyl)phenyl]-4-piperidinebutanoic acid], the IC50 on GP IIb/IIIa (read-out: αIIbβ3 IC50) is greater than 50 µM; at Human αvβ3 it was 6.6 ± 1.8 nM; at human purified αVβ5, 28.7 ± 13.3 nM.

Regarding `O=C(O)CC(CCC1CCN(C(=O)c2cccc(NC3=NCC(O)CN3)c2)CC1)c1cnc2ccccc2c1` (stereo not drawn) [Cpd 49, β-[2-[1-[3-[(1,4,5,6-tetrahydro-5-hydroxy-2-pyrimidinyl)amino]benzoyl]-4-piperidinyl]ethyl]-3-quinolinepropanoic acid], the IC50 was 0.16 ± 0.02 µM at GP IIb/IIIa (read-out: αIIbβ3 IC50), 1.8 ± 0.5 nM at Human αvβ3 and 89.5 ± 25.5 nM on human purified αVβ5.

Consider `O=C(O)CC(CC1CCN(C(=O)CCc2ccc3c(n2)NCCC3)CC1)c1ccc2c(c1)OCC2` (single isomer, unassigned) [Cpd 36b, 3-(2,3-Dihydro-benzofuran-6-yl)-4-[1-(3-5,6,7,8-tetrahydro-[1,8]naphthyridin-2-yl-propionyl)-piperidin-4-yl]-butyric acid], for which the results for the IC50 at GP IIb/IIIa (read-out: αIIbβ3 IC50), on Human αvβ3 and at human purified αVβ5 were greater than 50 µM, 84 nM and 129 nM, respectively.

As to `COC(=O)CCCC1CCN(C(=O)CCc2ccc3c(n2)NCCC3)CC1` [Cpd 73, 4-[1-(3-5,6,7,8-Tetrahydro-[1,8]naphthyridin-2-yl-propionyl)-piperidin-4-yl]-butyric acid methyl ester], the IC50 is greater than 50 µM on GP IIb/IIIa (read-out: αIIbβ3 IC50), greater than 500 nM on Human αvβ3 and greater than 1000 nM on human purified αVβ5.

As for `O=C(O)CC(CC1CCN(C(=O)CCc2ccc3c(n2)NCCC3)CC1)C1CNc2ccccc2C1` (stereo not drawn) [Cpd 19, 1,2,3,4-tetrahydro-β-[[1-[1-oxo-3-(5,6,7,8-tetrahydro-1,8-naphthyridin-2-yl)propyl]-4-piperidinyl]methyl]-3-quinolinepropanoic acid], the IC50 on GP IIb/IIIa (αIIbβ3 IC50 (uM)) is 13.8 ± 9.69 µM; on Human αvβ3, 2.5 ± 0.4 nM; on human purified αVβ5 it was 17.1 ± 2.5 nM.

For `O=C(O)CC(CCC1CCN(C(=O)c2cccc(NC3=NCCCN3)c2)CC1)c1cccnc1` (stereo not drawn) [Cpd 6, β-[2-[1-[3-[(1,4,5,6-Tetrahydro-2-pyrimidinyl)amino]benzoyl]-4-piperidinyl]ethyl]-3-pyridinepropanoic acid], the IC50 turned out to be 1.62 ± 0.05 µM on GP IIb/IIIa (read-out: αIIbβ3 IC50), 7.6 ± 2.1 nM at Human αvβ3 and 540 nM at human purified αVβ5.
